Laboratory results as given in EP4702986A1, “POLYPEPTIDE AND USE THEREOF” (Biocells (Beijing) Biotech Co., Ltd., priority 2023, dated 2024).
Entries after “also recorded” stand apart in the source; their conditions may differ. Numbered stars: 1 amine (or outer) side, 2 acyl side, 3 side chain; on linkers, the order of the positions; unused ones are H or OH. Bridge positions count the residues as written; N and C are the ends. Side chains are listed from the residue outwards. Peptide text beside a SMILES is read from it. * marks the point of attachment. γGlu = O=C(O)[C@H](CCC(=O)[*:2])N[*:1]; Fumaroyl = O=C(O)/C=C/C(=O)*; Lauroyl = CCCCCCCCCCCC(=O)*; AEEA = NCCOCCOCC(=O)O

How the values were obtained:
[1] = target: T1, human ETB receptor (Homo sapiens, UniProt P24530); assay: Determination of EC50 of polypeptides against human ETB receptor (IP-One Gq kit); type: cell-based; details: 293T-17 cells transfected with PCDNA3.1-hETB; read-out: hETBR agonist activity EC50/nM
T1 construct: expressed in transfected cells; host or cells: 293T-17 cells, transient transfection
T1 sequence (P24530 27-442): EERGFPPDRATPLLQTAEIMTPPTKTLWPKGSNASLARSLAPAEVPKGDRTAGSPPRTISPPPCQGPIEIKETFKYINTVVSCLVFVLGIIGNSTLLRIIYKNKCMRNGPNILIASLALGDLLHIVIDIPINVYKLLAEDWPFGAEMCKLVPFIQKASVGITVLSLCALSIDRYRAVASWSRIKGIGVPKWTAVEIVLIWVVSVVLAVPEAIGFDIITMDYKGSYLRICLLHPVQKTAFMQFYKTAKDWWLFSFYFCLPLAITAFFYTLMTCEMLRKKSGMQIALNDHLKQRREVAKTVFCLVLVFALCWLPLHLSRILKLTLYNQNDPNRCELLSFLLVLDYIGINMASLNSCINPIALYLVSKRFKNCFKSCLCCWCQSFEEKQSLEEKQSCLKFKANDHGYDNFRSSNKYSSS
Protocol: 293T-17 cells were seeded at a density of 650,000 cells per well in a 6-well plate and cultured overnight in an incubator at 37°C and 5% CO2. Afterward, the cells were transfected with an expression vector, PCDNA3.1-hETB which contained a human ETB receptor gene, at a plasmid concentration of 2.5 µg per well. The cells were further cultured for 48 hours, and green fluorescence expression was observed under a fluorescence microscope. The cells were then digested with trypsin and counted. The activity of compounds on the human ETB receptor was determined with the IP-One Gq kit from Cisbio Bioassays. The cells were suspended in Stim Buffer provided in the kit and the cell suspension was added to a 96-well detection plate at 7 µL cell suspension (containing 30,000 cells) per well. The polypeptides to be tested (prepared according to the Preparation Example of the invention) were diluted in Stim B to obtain a gradient of 11 concentration points. For each concentration point, the polypeptides to be tested were dissolved in Stim B to be at a concentration of 2×, and added at 7 µL to the test cells, while 7 µL of PBS solution was added to the cells in the negative control wells. The plate was sealed and incubated at 37°C for 1 hour in a cell culture incubator. Detection wells, positive control wells containing human endothelin ET1 (ET1: […] (C1-C15,C3-C11)), and PBS control wells were each added with 3 µL of IP1 d2 working solution and 3 µL of IP1 Tb cryptotate Antibody working solution. The plate was then sealed and incubated in the dark at room temperature (25°C±5°C) for 1 hour. The plate seal was removed, and the […] at 665 nm and 620 nm was measured with an ID5 microplate reader. The ratio of the acceptor emission signal to the donor emission signal, i.e., (signal at 665 nm/signal at 620 nm)×10^4, was calculated for each well. With F representing the average value of values of signal at 665 nm/signal at 620 nm for the test samples at various concentrations, a scatterplot was plotted, where the abscissa represented the F value, and the ordinate represented the logarithmic value of the peptide concentration. A curve was fitted with an appropriate method to calculate EC50 values of the polypeptides against the human ETB receptor. Another method was provided for fitting a curve where activation rate of the test polypeptides at each concentration relative to the positive control sample human endothelin ET1 was calculated first with the method in Example 1, and a scatterplot was plotted, where the abscissa represented the activation rate, and the ordinate represented the logarithmic value of the polypeptide concentration. A curve was fitted with an appropriate method to calculate the EC50 values of the polypeptides against the human ETB receptor.

[2] = in vivo; details: male, SD, rat, in vivo, iv
Protocol: (§1) In an experiment about acute toxicity of intravenous administration, male SD rats weighing 200-230 g were dosed in a range between 480 µg/Kg and 30 µg/Kg via tail vein injection in a descending order of dosage. […] Toxic response and mortality of the rats were preliminarily observed, and time of death and doses without mortality of the rats were recorded. The level of acute toxicity of the polypeptides was preliminarily determined based on the doses without mortality.

[3] = tested on: male SD rats; assay: in vivo; details: one animal per row, observed 24 hours
Protocol: as §1

[4] = tested on: male SD rats; details: male SD rats, subcutaneous, observed for 48 hours
Protocol: In an experiment about acute toxicity of subcutaneous administration, male SD rats weighing 200-230 g were dosed in a range between 60 µg/Kg and 960 µg/Kg. Observation was made for 48 hours after subcutaneous administration. Toxic response and mortality of the rats were preliminarily observed, and time of death and doses without mortality were recorded. The level of acute toxicity of the polypeptides was preliminarily determined based on the doses without mortality.

[5] = tested on: SD rats; details: rat, in vivo
Protocol: Male SD rats were anesthetized with isoflurane, and their neck hairs were shaved. A midline incision was made on the neck to expose the trachea. A ventilator and anesthesia machine for small animals were turned on, with concentration of an anesthetic gas set to 1.2, and its exit channel connected to an inlet of the ventilator. Tidal volume of the ventilator was set to 2 mL, the respiratory rate was 90 breaths/minute, and the respiratory ratio was 1:2. An outlet end of the ventilator was connected to a plastic hose, which was inserted into the rat's airway.
A machine and a software of a biological signal data acquisition and analysis system were turned on. One end of a data acquisition plate was connected to the plastic hose, and the other end was connected to a collector valve connected with a 1-mL syringe. The syringe was filled with heparinized saline, which was injected into the data acquisition plate to expel the air in the entire space until the heparinized saline flowed out from the other end of the plastic hose. The right common carotid arteries of the rats were isolated. A dead knot was made at the distal end and a slipknot at the proximal end of a right common carotid artery. A 1/2-sized incision was made in the artery between the knot with a microscissor, and the plastic hose with heparinized saline was inserted into the incision and fixed to prevent back-and-forth movement. The initial value of the blood pressure was set to zero with the zero-adjustment valve of the biological signal data acquisition and analysis system. The slipknot at the proximal end of the common carotid artery was untied, and real-time blood pressure data of the animal appeared on the software. […] The dosages of IRL1620, BX34, and BX229 were 5 µg/Kg, 42 µg/kg, and 6.6 µg/Kg, respectively.

[6] = tested on: mouse model of tMCAO; assay: Garcia JH scoring in mouse model of tMCAO; type: in vivo, C57/6J mice
Protocol: Fifty-one male C57/6J mice, aged 10-12 weeks, weighing 25-30g, were housed for at least 2 days prior to the experiment to adapt to the environment (SPF Biotech). A mouse model of tMCAO was established. The mice were anesthetized with isoflurane. Their body temperature was controlled by a thermostatic blanket and monitored and maintained at 37±0.5°C. A middle incision was made in the skin on the mouse skull, the skin was pulled outward, and a bendable microneedle tip was fixed to the surface of the left parietal bone of the mouse skull. A middle incision on the neck was made to separate the right common carotid artery (CCA), external carotid artery (ECA) and internal carotid artery (ICA). According to the method of Longa (Longa et al., 1989), a silicone rubber-coated suture (RWD Life Science, suture end diameter: 0.22 mm-0.23 mm, MSMC23B120PK50) was introduced through an external carotid artery incision surgery and was slowly advanced through the internal carotid artery towards the origin of the middle cerebral artery. To ensure a sustained and successful occlusion of the middle cerebral artery, we monitored local cerebral blood flow of all stroke animals with a laser speckle flowmeter (generally, the blood flow can be reduced by 40-60% after stabilized). The suture was removed 45 min after the insertion for modeling, and the incision was sutured. Afterward, 1 mL of 37°C warm saline was injected subcutaneously, and the mice were placed on a heating pad until recovery. To alleviate pain, the mice were injected subcutaneously with Tilidine after awakening from anesthesia.
Successfully modeled C57 tMCAO mice were randomly assigned into three groups: a normal saline group, a 30µg/Kg BX229-Na administration group, and a 100µg/Kg BX229-Na administration group. Each group was administered once subcutaneously in the neck 4.5 hours after occlusion (D1), and was administered once more at the same sites and at the same time points on D3 and D6. A sham group included 6 animals. 2 mL/kg was administrated subcutaneously in the neck. Garcia JH scoring was made on D7 and D14 after administration. After the completion of the scoring on D14, the mice were euthanized and harvested for infarcted brain tissues, to extract total proteins. Changes in protein markers VEGF-A and BDNF in each experimental group were detected by ELISA. Table 19: Experimental Grouping and Dosing Regimen

[7] = Determination of half-lives of polypeptides (plasma, LC-MS); details: C57 BL/6, mouse, plasma, iv
[8] = 30µg/Kg subcutaneously on D1, D3, D6
[9] = tMCAO mice, 30µg/Kg s.c. on D1, D3, D6

Structure (SMILES)	EC50 [1]	MTD at 24 h [2]	Observations of Animal Status ([3]; intravenous (tail vein) 60 µg/Kg)	Observations of Animal Status ([3]; intravenous (tail vein) 90 µg/Kg)	Observations of Animal Status ([3]; intravenous (tail vein) 120 µg/Kg)	acute toxicity of subcutaneous administration compared with IRL1620 [4]	maximum extent of decrease in blood pressure, of the baseline blood pressure [5]	time to the lowest blood pressure [5]	Maximum percentage of blood pressure reduction relative to baseline blood pressure (n = 3) ([5]; iv)	Time from baseline blood pressure to the lowest blood pressure ([5]; iv)	Garcia JH-15 score on D7 compared with the normal saline group [6, 8]	Garcia JH-15 score on D14 compared with the normal saline group [6, 8]	Garcia JH-15 score on D7 compared with the normal saline group ([6]; 100µg/Kg subcutaneously on D1, D3, D6)	Garcia JH-15 score on D7 compared with the normal saline group [6, 9]	Garcia JH-15 score on D14 compared with the normal saline group [6, 9]	Garcia JH-15 score on D7 compared with the normal saline group ([6]; tMCAO mice, 100µg/Kg s.c. on D1, D3, D6)	Garcia JH-15 score on D14 compared with the normal saline group ([6]; tMCAO mice, 100µg/Kg s.c. on D1, D3, D6, P < 0.05)	total score of the Garcia JH-15 score, higher than in the normal saline group by ([6]; tMCAO mice, D7, 100µg/Kg s.c. on D1, D3, D6)	half-life [7]
CC[C@H](C)[C@H](NC(=O)[C@H](CC(=O)O)NC(=O)[C@@H]1CCCCNC(=O)CC[C@H](NC(=O)[C@H](CCC(=O)O)NC(=O)[C@H](CCC(=O)O)NC(=O)[C@H](CC(=O)O)NC(=O)/C=C/C(=O)O)C(=O)N[C@@H](C(C)C)C(=O)N[C@@H](Cc2ccc(O)cc2)C(=O)N[C@@H](Cc2ccccc2)C(=O)N[C@@H](CCCCN)C(=O)N[C@@H](Cc2c[nH]cn2)C(=O)N1)C(=O)N[C@H](C(=O)N[C@@H](Cc1c[nH]c2ccccc12)C(=O)O)[C@@H](C)CC [QP-3] (Fumaroyl-DEEEVYFKHKDIIW-OH; lactam 4-10)	3.85 nM																		
CCCCCCCCCCCC(=O)N[C@@H](CCC(=O)NCCOCCOCC(=O)NCCCC[C@H](NC(=O)[C@H](Cc1c[nH]cn1)NC(=O)[C@H](C)NC(=O)[C@H](Cc1ccccc1)NC(=O)[C@H](Cc1ccc(O)cc1)NC(=O)[C@@H](NC(=O)[C@H](C)NC(=O)[C@H](CCC(=O)O)NC(=O)[C@H](CCC(=O)O)NC(=O)[C@H](CC(=O)O)NC(=O)/C=C/C(=O)O)C(C)C)C(=O)N[C@@H](CC(=O)O)C(=O)N[C@H](C(=O)N[C@H](C(=O)N[C@@H](Cc1c[nH]c2ccccc12)C(=O)O)[C@@H](C)CC)[C@@H](C)CC)C(=O)O [BX-225-Na] (Fumaroyl-DEEAVYFAHK([AEEA-γGlu-Lauroyl])DIIW-OH)	134 nM																		
CCCCCCCCCCCC(=O)N[C@@H](CCC(=O)NCCOCCOCC(=O)NCCCC[C@H](NC(=O)[C@H](Cc1c[nH]cn1)NC(=O)[C@H](C)NC(=O)[C@H](Cc1ccccc1)NC(=O)[C@H](Cc1ccc(O)cc1)NC(=O)[C@@H](NC(=O)[C@H](C)NC(=O)[C@H](CCC(=O)O)NC(=O)[C@H](CCC(=O)O)NC(=O)[C@H](CC(=O)O)NC(=O)/C=C/C(=O)O)C(C)C)C(=O)N[C@@H](CC(=O)O)C(=O)N[C@H](C(=O)N[C@H](C(=O)N[C@@H](Cc1c[nH]c2ccccc12)C(=O)O)[C@@H](C)CC)C(C)C)C(=O)O [BX-229] (Fumaroyl-DEEAVYFAHK([AEEA-γGlu-Lauroyl])DVIW-OH)		0.06 mg/kg	No obvious reaction within 1 hour; developed rapid breathing at 1 hour; recovered to normal after 10 minutes	Died at 1 hour after administration; also recorded: Developed rapid breathing at 25 minutes after administration; recovered after 25 minutes; showed no willingness to move; also recorded: Developed rapid breathing and the body turned purple at 1 hour after administration; partially recovered after 30 minutes; also recorded: Developed rapid breathing and diarrhea at 45 minutes after administration; recovered after 25 minutes; also recorded: Developed rapid breathing at 44 minutes after administration; died of convulsions at 52 minutes after administration; also recorded: Developed rapid breathing at 43 minutes after administration; recovered after 30 minutes	Died at 26 minutes after administration; had white discharge in the nasal cavity and developed diarrhea	much lower	17.0%±2.0%	20 to 35 min	17.0%±2.0%	20 to 30 min	better scores than the normal saline group	better scores than that of the normal saline group	better scores than the normal saline group	better scores	better scores	better scores	significantly different	1 point	1.28 h
